# Molecular target: T1, vanilloid receptor 1 (VR1/TRPV1 receptor) (Homo sapiens, UniProt Q8NER1)
# T1 construct: expressed in transfected cells; host or cells: CHO K1
# Assay: Functional testing on the vanilloid receptor 1 (VR1/TRPV1): FLIPR Ca2+ influx assay, displacement of capsaicin
# Type: cell-based, human being
# Conditions: 1 μM compound; capsaicin (Cap); human being; read-out: inhibition (as a percentage) at the concentration after @, Cap
# Summary of the method: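 Fluo-4 FLIPR Ca2+ influx in CHO K1 cells transfected with human VR1, measuring displacement of 100 nM capsaicin; rat VR1 agonism/antagonism also assessed in rat dorsal root ganglion neurons cultured 2–3 days at 37° C with 25 ng/mL NGF, then loaded with 2 μM Fluo-4.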
# T1 sequence (Q8NER1 whole entry): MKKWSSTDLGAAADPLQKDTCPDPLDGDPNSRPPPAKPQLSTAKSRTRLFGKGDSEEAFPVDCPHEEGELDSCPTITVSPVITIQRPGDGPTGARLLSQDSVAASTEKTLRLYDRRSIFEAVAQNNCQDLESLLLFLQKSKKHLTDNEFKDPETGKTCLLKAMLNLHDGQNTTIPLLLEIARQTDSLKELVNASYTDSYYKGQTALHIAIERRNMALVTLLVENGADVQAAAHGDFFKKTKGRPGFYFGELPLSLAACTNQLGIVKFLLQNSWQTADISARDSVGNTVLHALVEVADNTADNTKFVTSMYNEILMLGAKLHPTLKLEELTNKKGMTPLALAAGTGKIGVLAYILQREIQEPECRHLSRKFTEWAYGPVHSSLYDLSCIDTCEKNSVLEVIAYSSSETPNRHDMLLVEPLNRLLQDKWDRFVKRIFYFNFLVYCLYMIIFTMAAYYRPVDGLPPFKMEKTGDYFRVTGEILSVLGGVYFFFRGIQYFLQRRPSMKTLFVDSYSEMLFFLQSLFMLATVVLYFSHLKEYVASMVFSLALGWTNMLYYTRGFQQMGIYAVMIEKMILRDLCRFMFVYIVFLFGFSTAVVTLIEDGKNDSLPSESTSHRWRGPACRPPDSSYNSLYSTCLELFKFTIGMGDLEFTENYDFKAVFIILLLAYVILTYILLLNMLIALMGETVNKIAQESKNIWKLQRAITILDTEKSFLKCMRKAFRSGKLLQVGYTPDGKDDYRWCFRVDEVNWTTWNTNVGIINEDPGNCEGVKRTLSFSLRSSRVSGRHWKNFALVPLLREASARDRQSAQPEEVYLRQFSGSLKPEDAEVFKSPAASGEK
row,inhibition at 1 µM [%],Structure (SMILES)
1,29,"CC(C)(C)c1cc(CNC(=O)Nc2ccc(CS(C)(=O)=O)nc2)n(-c2cccc(Cl)c2)n1 [Example 159, 1-((3-tert-butyl-1-(3-chlorophenyl)-1H-pyrazol-5-yl)methyl)-3-(6-(methylsulfonylmethyl)pyridin-3-yl)urea]"

# Same assay, conditions: capsaicin (Cap) as stimulus; Ki from IC50 by Cheng-Prusoff; read-out: (f) Ki (human being) [nM] Cap
row,Ki [nM],Structure (SMILES)
1,18,"COCCNc1ccc(C(C)C(=O)NCc2cc(C(F)(F)F)nn2-c2cccc(Cl)c2)cn1 (centres unmarked) [Example 147, N-((1-(3-chlorophenyl)-3-(trifluoromethyl)-1H-pyrazol-5-yl)methyl)-2-(6-(2-methoxyethylamino)pyridin-3-yl)propanamide]"
2,15,"CC(C(=O)NCc1cc(C(F)(F)F)nn1-c1cccc(Cl)c1)c1ccc(N(C)CCO)nc1 (centres unmarked) [Example 148, N-((1-(3-chlorophenyl)-3-(trifluoromethyl)-1H-pyrazol-5-yl)methyl)-2-(6-((2-hydroxyethyl)(methyl)amino)pyridin-3-yl)propanamide]"
3,28,"CC(C(=O)NCc1cc(C(F)(F)F)nn1-c1ccc(F)c(Cl)c1)c1ccc(CCO)nc1 (centres unmarked) [Example 149, N-((1-(3-chloro-4-fluorophenyl)-3-(trifluoromethyl)-1H-pyrazol-5-yl)methyl)-2-(6-(2-hydroxyethyl)pyridin-3-yl)propanamide]"
4,59,"CC(C(=O)NCc1cc(C2CC2)nn1-c1cccc(Cl)c1)c1ccc(CCO)nc1 (centres unmarked) [Example 150, N-((1-(3-chlorophenyl)-3-cyclopropyl-1H-pyrazol-5-yl)methyl)-2-(6-(2-hydroxyethyl)pyridin-3-yl)propanamide]"
5,49,"Cc1cccc(-n2nc(C(F)(F)F)cc2CNC(=O)C(C)c2ccc(CCO)nc2)c1 (centres unmarked) [Example 151, 2-(6-(2-hydroxyethyl)pyridin-3-yl)-N-((1-m-tolyl-3-(trifluoromethyl)-1H-pyrazol-5-yl)methyl)propanamide]"
6,85,"CC(C)(C)c1cc(CNC(=O)Nc2ccc(CCO)nc2)n(-c2cccc(F)c2)n1 [Example 152, 1-((3-tert-butyl-1-(3-fluorophenyl)-1H-pyrazol-5-yl)methyl)-3-(6-(2-hydroxyethyl)pyridin-3-yl)urea]"
7,50,"COc1cccc(-n2nc(C(C)(C)C)cc2CNC(=O)Nc2ccc(CCO)nc2)c1 [Example 153, 1-((3-tert-butyl-1-(3-methoxyphenyl)-1H-pyrazol-5-yl)methyl)-3-(6-(2-hydroxyethyl)pyridin-3-yl)urea]"
8,38,"CC(C)(C)c1cc(CNC(=O)Nc2ccc(NCCO)nc2)n(-c2cccc(F)c2)n1 [Example 154, 1-((3-tert-butyl-1-(3-fluorophenyl)-1H-pyrazol-5-yl)methyl)-3-(6-(2-hydroxyethylamino)pyridin-3-yl)urea]"
9,35,"O=C(NCc1cc(C(F)(F)F)nn1-c1cc(F)cc(F)c1)Nc1ccc(NCCO)nc1 [Example 155, 1-((1-(3,5-difluorophenyl)-3-(trifluoromethyl)-1H-pyrazol-5-yl)methyl)-3-(6-(2-hydroxyethylamino)pyridin-3-yl)urea]"
10,29,"Cc1cc(-n2nc(C(F)(F)F)cc2CNC(=O)Nc2ccc(NCCO)nc2)ccc1Cl [Example 156, 1-((1-(4-chloro-3-methylphenyl)-3-(trifluoromethyl)-1H-pyrazol-5-yl)methyl)-3-(6-(2-hydroxyethylamino)pyridin-3-yl)urea]"
11,112,"COc1ccc(-n2nc(C(F)(F)F)cc2CNC(=O)Nc2ccc(NCCO)nc2)cc1C [Example 157, 1-(6-(2-hydroxyethylamino)pyridin-3-yl)-3-((1-(4-methoxy-3-methylphenyl)-3-(trifluoromethyl)-1H-pyrazol-5-yl)methyl)urea]"
12,77,"Cc1cc(-n2nc(C(F)(F)F)cc2CNC(=O)Nc2ccc(NCCO)nc2)ccc1F [Example 158, 1-((1-(4-fluoro-3-methylphenyl)-3-(trifluoromethyl)-1H-pyrazol-5-yl)methyl)-3-(6-(2-hydroxyethylamino)pyridin-3-yl)urea]"
13,75,"CC(C)(C)c1cc(CNC(=O)Nc2ccc(CO)nc2)n(-c2cccc(F)c2)n1 [Example 160, 1-((3-tert-butyl-1-(3-fluorophenyl)-1H-pyrazol-5-yl)methyl)-3-(6-(hydroxymethyl)pyridin-3-yl)urea]"

# From US20130029962A1, “Substituted Heteroaromatic Pyrazole-Containing Carboxamide and Urea Compounds as Vanilloid Receptor Ligands” (Gruenenthal GmbH, priority 2011, published 2013)
